Results published in PMC3997483, “Aminostyrylbenzofuran Directly Reduces Oligomeric Amyloid-β and Reverses Cognitive Deficits in Alzheimer Transgenic Mice” (PLoS ONE, 2014).
Like-named read-outs stand apart in the source and are kept apart here.

Legend:
[1] = Pharmacokinetics IV/PO in rats; assay type: in vivo, SD rats; settings: for AUC(0-t): read-out: AUC0–24h
Protocol: Pharmacokinetics profile of KMS88009 was obtained using ICR mice, SD rats, beagle dogs and cynomolgus monkeys. Animals were fasted overnight before KMS88009 administration. Mice were divided into 2 groups to receive KMS88009 as a single dose of 2.1 mg/kg intravenous (IV) bolus or 10 mg/kg orally (PO) by gavage. Additionally, KMS88009 was administered orally to estimate the BBB penetration in mice (10, 30 and 100 mg/kg). […] Dog received KMS88009 either as an IV bolus (1 mg/kg) via the great saphenous vein or by oral gavage (4 mg/kg). KMS88009 was administrated to monkeys as an IV bolus (1 mg/kg) via the femoral vein or by oral gavage (4 mg/kg). Vehicle for IV and PO administration was DMSO/tween-20/saline (3.3∶19.8∶[…]). […]. Brain samples were weighed and Daunce-homogenized in 10-fold volume of ice-chilled 4% bovine serum albumin (BSA) solution at room temperature. Plasma and brain homogenates were kept frozen at −70°C until analysis. The levels of KMS88009 were determined by the LC-MS/MS analysis. Pharmacokinetic parameters, time to the maximum concentration (Tmax), maximum concentration (Cmax), elimination half-life (T1/2), volume of distribution (Vd), clearance (Cl) and mean residual time (MRT), of KMS88009 were calculated based on plasma concentration-time data by a non-compartmental method using WinNonlin Version 5.2 (Pharsight, USA). Area under the curve from 0 to 24 hr (AUC0-24h) and area under the curve from 0 to infinity (AUCINF) were obtained by linear and log linear trapezoidal summations.

APP/PS1 TG mice = assay: Morris water maze, prophylactic trial; assay type: in vivo, mouse; settings: for swimming time % within the target quadrant (probe trial): APP/PS1 TG mice, vehicle TG 23.4%, WT 44.3%; for Latency (hidden platform): TG mice
Protocol: Behavioral tests were performed in the following sequence: Y-maze (day 1), Morris water maze (day 4 to 12) and contextual fear conditioning (day 26 to 27). To reduce stress, contextual fear conditioning was carried out 2 weeks after the Morris water maze task. In the therapeutic trial, APP/PS1 TG mice were treated with KMS88009 (30 mg/kg/day) for 3 months from 9 to 12 months of age. Y-maze tests short-term spatial working memory. Y-maze is a 3-armed (40 L×10 W×12 H cm) horizontal maze in which the arms are symmetrically disposed at 120° angles from each other. Mice were placed at the end of one arm and allowed to move freely through the maze during a 5-min session. Arm entry was considered completed when the hind paws of the mouse were completely placed in the arm. Alternation was defined as successive entries into the 3 arms on overlapping triplet sets. The series of arm entries was recorded via video recorders. The percentage of alternation was defined according to the following equation: % alternation = [(number of alternations)/(total arm entries - 2)] ×100. Mice performing fewer than 7 alternations in 5 min were excluded from the subsequent analysis to accurately determine alternation scores. Morris water maze was used to measure spatial learning and memory. A stainless pool apparatus with a diameter of 120 cm was used. A clear escape platform (circle, 12×12 cm) was located 1.0 cm below (hidden) the water surface containing white nontoxic paint. The temperature of water was kept constant throughout the experiment (21±1°C). The visual cues, for mice to recognize the environment and direction, are placed on the walls around the pool. The training was consisted of 8 consecutive days of testing with 4 trials per day. When a mouse was located on the escape platform, it was permitted to remain on the platform for 15 sec. […] Then the subject was returned to its home cage and allowed to dry up after each trial. The platform location was kept constant and the starting position was varied. Each mouse was placed in the water with their nose pointing toward the wall at one of the starting points in a random manner. During each trial session, the time taken to find the hidden platform (latency) was recorded using a video camera-based Ethovision System (Nodulus, Nertherlands). On the 9th day, each mouse was tested on a probe trial. The platform was removed from pool and the mice were allowed to swim for 60 sec to search. Swimming time was recorded during mice were in the pool quadrant where the platform had been previously located. Mice, which float or jump from platform, were eliminated from the experiment since these responses may be incompatible with the behaviors needed to locate and learn the platform position. In addition, animals with difficulty in swimming were also excluded from this study. Fear conditioning task was measured to test the ability to learn and remember an association between an aversive experience and environmental cues. Contextual fear conditioning evaluation was performed using a fear-conditioning chamber (Courlbourn, USA) equipped with a computer-controlled fear conditioning system (FreActimetrics, USA). On the first day of training, each mouse was placed in the conditioning chamber and left to adjust for 2 min. Fear conditioning test was performed with conditional stimulus (CS) of sound (75 dB) for 20 sec followed by unconditional stimulus (US) of electric foot-shock (0.5 mA) for the last 2 sec in CS. After 1 min, the subject was returned to its home cage. After 24 hr, retention test was performed. […] Freezing response was measured without CS or US. Freezing behavior was defined as the complete absence of any movement except for respiration and heartbeat. Animals with no response to the foot-shock during training were excluded from the analysis. Data analyses including recordings of all behavioral responses were performed by keeping research colleagues blind.

Aβ oligomers = assay: Western blot (6E10) of hippocampus soluble fraction, prophylactic trial; assay type: in vivo, mouse; settings: soluble fraction of hippocampal homogenates, TG mice

COc1ccc2cc(C=Cc3ccc(N(C)C)cc3)oc2c1 [KMS88009, 6-methoxy-2-(4-dimethylaminostyryl) benzofuran]
MRT last ([1]; SD, plasma, rat IV 1.25 mg/kg): 1.8 h
Vd ([1]; SD, plasma, rat IV 1.25 mg/kg): 8 L/kg
clearance ([1]; SD, plasma, rat IV 1.25 mg/kg): 13.3 mL/min/kg
half-life ([1]; SD, plasma, rat IV 1.25 mg/kg): 432 min
MRT last ([1]; SD, plasma, rat PO 2.5 mg/kg): 4 h
half-life ([1]; SD, plasma, rat PO 2.5 mg/kg): 240 min
AUC(0-inf) ([1]; SD, rat IV 1.25 mg/kg, plasma): 1670 ng·h/mL
AUC(0-t) ([1]; SD, rat IV 1.25 mg/kg, plasma): 1640 ng·h/mL
AUC(0-inf) ([1]; SD, rat PO 2.5 mg/kg, plasma): 929 ng·h/mL
AUC(0-t) ([1]; SD, rat PO 2.5 mg/kg, plasma): 908 ng·h/mL
BA ([1]; rat PO […] vs IV 1.25 mg/kg): 27.8%
swimming time % within the target quadrant (probe trial) (APP/PS1 TG mice; PO 10 mg/kg/day): 40.4%
swimming time % within the target quadrant (probe trial) (APP/PS1 TG mice; PO 30 mg/kg/day): 39.7%
swimming time % within the target quadrant (probe trial) (APP/PS1 TG mice; PO 100 mg/kg/day): 37.6%
Latency (hidden platform) (APP/PS1 TG mice; Day 1, dose group + (10 mg/kg/day)): 50.5 ± 2.1 s
Latency (hidden platform) (APP/PS1 TG mice; Day 1, dose group ++ (30 mg/kg/day)): 49.2 ± 2.4 s
Latency (hidden platform) (APP/PS1 TG mice; Day 1, dose group +++ (100 mg/kg/day)): 48.3 ± 3.0 s
Latency (hidden platform) (APP/PS1 TG mice; Day 2, dose group + (10 mg/kg/day)): 39.8 ± 2.7 s
Latency (hidden platform) (APP/PS1 TG mice; Day 2, dose group ++ (30 mg/kg/day)): 38.3 ± 3.0 s
Latency (hidden platform) (APP/PS1 TG mice; Day 2, dose group +++ (100 mg/kg/day)): 37.6 ± 5.2 s
Latency (hidden platform) (APP/PS1 TG mice; Day 3, dose group + (10 mg/kg/day)): 31.1 ± 2.5 s
Latency (hidden platform) (APP/PS1 TG mice; Day 3, dose group ++ (30 mg/kg/day)): 30.6 ± 3.3 s
Latency (hidden platform) (APP/PS1 TG mice; Day 3, dose group +++ (100 mg/kg/day)): 34.3 ± 4.3 s
Latency (hidden platform) (APP/PS1 TG mice; Day 4, dose group + (10 mg/kg/day)): 35.1 ± 2.8 s
Latency (hidden platform) (APP/PS1 TG mice; Day 4, dose group ++ (30 mg/kg/day)): 32.9 ± 3.0 s
Latency (hidden platform) (APP/PS1 TG mice; Day 4, dose group +++ (100 mg/kg/day)): 32.0 ± 4.0 s
Latency (hidden platform) (APP/PS1 TG mice; Day 5, dose group + (10 mg/kg/day)): 41.8 ± 3.2 s
Latency (hidden platform) (APP/PS1 TG mice; Day 5, dose group ++ (30 mg/kg/day)): 36.3 ± 4.2 s
Latency (hidden platform) (APP/PS1 TG mice; Day 5, dose group +++ (100 mg/kg/day)): 29.6 ± 4.1 s
Latency (hidden platform) (APP/PS1 TG mice; Day 6, dose group + (10 mg/kg/day)): 32.9 ± 1.9 s
Latency (hidden platform) (APP/PS1 TG mice; Day 6, dose group ++ (30 mg/kg/day)): 29.3 ± 3.9 s
Latency (hidden platform) (APP/PS1 TG mice; Day 6, dose group +++ (100 mg/kg/day)): 33.4 ± 4.8 s
Latency (hidden platform) (APP/PS1 TG mice; Day 7, dose group + (10 mg/kg/day)): 31.7 ± 2.6 s
Latency (hidden platform) (APP/PS1 TG mice; Day 7, dose group ++ (30 mg/kg/day)): 28.6 ± 3.5 s
Latency (hidden platform) (APP/PS1 TG mice; Day 7, dose group +++ (100 mg/kg/day)): 30.0 ± 2.6 s
Latency (hidden platform) (APP/PS1 TG mice; Day 8, dose group + (10 mg/kg/day)): 26.6 ± 3.0 s
Latency (hidden platform) (APP/PS1 TG mice; Day 8, dose group ++ (30 mg/kg/day)): 25.6 ± 3.0 s
Latency (hidden platform) (APP/PS1 TG mice; Day 8, dose group +++ (100 mg/kg/day)): 27.9 ± 4.6 s
Aβ oligomer species affected (western blot) (Aβ oligomers): prevented the accumulation of low-molecular-weight (3-mer) and high-molecular-weight (55 to 180 kDa) Aβ oligomeric species
